Reference: US10047069B2, “Compositions comprising an inhibitor of lysine specific demethylase-1” (Celgene Quanticel Research, Inc., priority 2015, dated 2018)
In brackets after ≈: the same amount, converted by molar mass.

What was measured:
Format in all cases: physicochemical
[1] = Stability post-storage at 40° C./75% RH assessed by XRPD; conditions: for Stability post-storage at 40° C./75% RH: form change assessed by XRPD
Experimental: (§1) Representative samples for the twenty-six forms were further analysed by NMR/IC and DSC. The stability of the samples after storage at 40° C./75% RH was also assessed by XRPD. Solubility in FeSSIF media was determined for selected samples. […] IC was employed to determine the molar equivalence for inorganic counterions, sulphate and phosphate.

[2] = Salt screen assessment compared to the HCl salt
Experimental: as §1

[3] = Thermodynamic solubility in FeSSIF; conditions: for Solubility in FeSSiF / solubility at 24 h: fed state simulated intestinal fluid (FeSSIF), equilibrated at 25° C. for 24 hours; for XRPD of residue: residue of the FeSSIF solubility test, analysed by XRPD as a damp solid
Experimental: Solubility was determined by suspending sufficient compound in fed state simulated intestinal fluid (FeSSIF) to give a maximum final concentration of >3 mg/ml of the parent free-form of the compound. The suspension was equilibrated at 25° C. for 24 hours then the pH was measured. The suspension was then filtered through a glass fibre C filter. The residue was analysed by XRPD as a damp solid. The filtrate was diluted by an appropriate factor prior to analysis by HPLC. Quantitation by HPLC was performed with reference to a standard solution of approximately 0.2 mg/ml in DMSO. Different volumes of the standard, diluted and undiluted sample solutions were injected. The solubility was calculated using the peak areas determined by integration of the peak found at the same retention time as the principal peak in the standard injection. Analysis was performed on an Agilent HP1100 series system equipped with a diode array detector and using ChemStation software vB.04.03.

[4] = Thermal stability from onset of DSC events; conditions: onsets of DSC events greater than 200° C.
Experimental: DSC data were collected on a Mettler DSC 823E equipped with a 34 position auto-sampler. The instrument was calibrated for energy and temperature using certified indium. Typically, 0.9-6 mg of each sample, in a pin-holed aluminum pan, was heated at 10° C./min from 25° C. to 350° C. A nitrogen purge at 50 ml/min was maintained over the sample. The instrument control and data analysis software was STARe v12.1.
The twenty remaining forms have thermal events occurring from as low as ˜30° C. These may be solvated/hydrated forms.

[5] = Gravimetric vapor sorption (GVS); conditions: 25° C.
Experimental: Sorption isotherms were obtained using a SMS DVS Intrinsic moisture sorption analyzer, controlled by DVS Intrinsic Control software v1.0.1.2 (or v 1.0.1.3). The sample temperature was maintained at 25° C. by the instrument controls. The humidity was controlled by mixing streams of dry and wet nitrogen, with a total flow rate of 200 ml/min. The relative humidity was measured by a calibrated Rotronic probe (dynamic range of 1.0-100% RH), located near the sample. The weight change, (mass relaxation) of the sample as a function of % RH was constantly monitored by the microbalance (accuracy±0.005 mg). Approximately 13 mg of sample was placed in a tared mesh stainless steel basket under ambient conditions. The sample was loaded and unloaded at 40% RH and 25° C. (typical room conditions). A moisture sorption isotherm was performed as outlined below (two scans giving one complete cycle). The standard isotherm was performed at 25° C. at 10% RH intervals over a 0%-90% RH range. Data analysis was carried out using Microsoft Excel using DVS Analysis Suite v6.2 (or 6.1 or 6.0). The sample was recovered after completion of the isotherm and re-analyzed by XRPD.

Compound | Stability post-storage at 40° C./75% RH [1] | stability and solubility when compared to the HCl salt [2] | Solubility in FeSSiF [3] [mg/mL] | XRPD of residue [3] | thermal stability [4] | Stability after 14 days storage at 40° C./75% RH ([1]; 14 days, confirmed by XRPD) | solubility at 24 h ([3]; 25 °C, pH 4.9, fessif, thermodynamic from solid) [µg/mL] | solubility at 24 h ([3]; pH 4.9, thermodynamic from solid) [µg/mL] | uptake at 90% RH by GVS [5] [%]
COc1ccc(-c2c(-c3ccc(C#N)c(F)c3)nc(N3CCC(N)CC3)n(C)c2=O)cc1F [SO4 1, 4-[2-(4-aminopiperidin-1-yl)-5-(3-fluoro-4-methoxyphenyl)-1-methyl-6-oxo-1,6-dihydropyrimidin-4-yl]-2-fluorobenzonitrile] | No form change | improved stability and solubility | 0.72 (≈ 1590 µM) | Amorphous | good thermal stability | – | – | – | –
COc1ccc(-c2c(-c3ccc(C#N)c(F)c3)nc(N3CCC(N)CC3)n(C)c2=O)cc1F [PHOA 1, 4-[2-(4-aminopiperidin-1-yl)-5-(3-fluoro-4-methoxyphenyl)-1-methyl-6-oxo-1,6-dihydropyrimidin-4-yl]-2-fluorobenzonitrile] | No form change | improved stability and solubility | 0.74 (≈ 1640 µM) | Amorphous | good thermal stability | – | – | – | –
COc1ccc(-c2c(-c3ccc(C#N)c(F)c3)nc(N3CCC(N)CC3)n(C)c2=O)cc1F [BA 1, 4-[2-(4-aminopiperidin-1-yl)-5-(3-fluoro-4-methoxyphenyl)-1-methyl-6-oxo-1,6-dihydropyrimidin-4-yl]-2-fluorobenzonitrile] | No significant | improved stability and solubility | 0.88 (≈ 1950 µM) | Poor crystallinity | good thermal stability | – | – | – | –
COc1ccc(-c2c(-c3ccc(C#N)c(F)c3)nc(N3CCC(N)CC3)n(C)c2=O)cc1F.Cl [HCL 1, 4-[2-(4-aminopiperidin-1-yl)-5-(3-fluoro-4-methoxyphenyl)-1-methyl-6-oxo-1,6-dihydropyrimidin-4-yl]-2-fluorobenzonitrile hydrochloride] | Extra peaks observed | – | – | Amorphous | – | Partial crystallization of a new form | 740 | 750 | 14
